# Assay results as given in patent US12508261B2, “Methods of treating depression with vortioxetine” (Rundle Research LLC, priority 2017, dated 2025).
# Values joined by “and” are separate entries in the source; they are usually repeats but may differ in a detail not shown here. Equal entries are not always repeated. Where two headings read alike, the source gives them in different places.
# Assay: Clinical pharmacokinetic study (RUN-001): vortioxetine 5 mg once daily for 29 days, then 28 days washout, obese vs normal-weight subjects
# Assay type: in vivo, human
# Settings: for Observed Clss: (5 mg/day)/AUC29; for Predicted CLss: (5 mg/day)/Css; for Observed accumulation ratio: AUC29/AUC1; for Predicted accumulation ratio: from elimination rate constant and 1 day dose interval
# Method: To test if the obese patients would require different washout guidelines for preventing serotonin syndrome, 16 obese subjects (BMI≥35) and 13 normal subjects (BMI<25) completed a clinical trial where they were administered daily with low doses (5 mg/day) of vortioxetine for 29 days in a controlled study. All subjects were subsequently tracked for 28 days after discontinuing vortioxetine on day 29. Blood samples were collected and processed according to standard techniques.
# The normal-weight control group consisted of healthy male and female volunteers aged 18 to 45 years. Their body mass index (BMI) values fell in the range of […]. […] Normal weight and obese subjects were matched as closely as possible for gender and age.
# CYP2D6 genotype status was determined from whole blood samples drawn from each subject. Known alleles of CYP2D6 were tested for, as well as the presence of gene duplications (LabCorp, Inc.). CYP2D6 metabolizer status was categorized as ultra-rapid, extensive, intermediate, or poor. Ultra-rapid and poor metabolizers were not included in the study.
# All subjects received vortioxetine, 5 mg once daily in the morning, for 29 days. The first dose was on Day 1, and the last dose was on Day 29. Blood sampling continued for another 28 days after the last dose, through Day 57.
# Subjects spent 12 hours in the study unit on Day 1 (first dose of vortioxetine) and Day 29 (last dose of vortioxetine). On those two study days, venous blood samples (7 mL each) were drawn prior to the dose of vortioxetine, and at 1, 2, 4, 6, 8, 10, and 12 hours after dosage.
# During the 29-day period of daily vortioxetine administration, subjects returned to the study unit in the morning of the following study days: 2, 3, 5, 8, 10, 12, 15, 17, 19, 22, 24, 26, and 29. At each visit, a single venous blood sample (7 mL) was drawn before the daily dose of vortioxetine. Subjects underwent a brief interview to assess subjective effects and possible adverse events. Subjects were then discharged until the next scheduled visit. They were provided with vortioxetine doses sufficient for daily morning administration until the next visit. No more than 2 consecutive doses of vortioxetine were taken on an outpatient basis.
# On Day 29 (the final dose of vortioxetine), subjects spent 12 hours in the study unit as described above. They returned to the study unit for a single blood sample on the mornings of the following Days: 30, 31, 33, 36, 38, 40, 43, 45, 47, 50, 52, 54, and 57.
# Plasma concentrations of vortioxetine were determined by liquid chromatography—mass spectrometry using a Shimadzu HPLC system coupled to a Sciex API-4000 mass spectrometer.
# The internal standard (vortioxetine-d8) was added to calibration standards, quality control samples, and unknown study samples. All samples were extracted with methyl tert-butyl ether. The organic phase was separated and evaporated to dryness; the reconstituted extract was injected into the HPLC system. The HPLC column was a Unison UK-C18, 50 mm×2 mm, 3 micron particle size. The mobile phase consisted of an organic component (0.1% formic acid in acetonitrile) and an aqueous component (0.1% formic acid and 2 mM ammonium acetate in water). This was delivered in gradient mode at a net flow rate of 0.4 mL/min, with the organic fraction varying from 40% to 96%. m/z monitored were: 299.1/150.1 for vortioxetine, and 307.1/153 for vortioxetine-d8. The limit of quantitation was 0.1 ng/mL. […] All samples from a given study subject were extracted and analyzed at the same time using the same calibration standards.
# Based on the clinical trials discussed above, several equations were derived which allow an individual to calculate the washout period (i.e., the time between stopping vortioxetine and initiating treatment with an MAOI). Data points to consisted of pre-dose plasma vortioxetine concentration (C) on each study day (t), both during (Days 1-29) and after (Days 30-57) the period of vortioxetine administration. […]
# [1] = Normal-weight subjects, mean ± SD
smiles,measurement,setting,value
Cc1ccc(Sc2ccccc2N2CCNCC2)c(C)c1 [vortioxetine],Css,"Normal-weight subjects, 5 mg/day, mean ± SD",3.75 ± 1.72 ng/mL
same,Observed Clss,[1],903 ± 450 mL/min
same,Predicted CLss,[1],1172 ± 679 mL/min
same,Observed accumulation ratio,[1],4.46 ± 1.10
same,Predicted accumulation ratio,[1],3.72 ± 0.77
same,Css,"Obese subjects, 5 mg/day, mean ± SD",4.23 ± 1.68 ng/mL
same,Observed Clss,"Obese subjects, mean ± SD",809 ± 331 mL/min
same,Predicted CLss,"Obese subjects, mean ± SD",935 ± 362 mL/min
same,Observed accumulation ratio,"Obese subjects, mean ± SD",5.24 ± 1.86
same,Predicted accumulation ratio,"Obese subjects, mean ± SD",5.22 ± 1.75
same,half-life,"both sexes, human, plasma, 5 mg/day, Normal-weight subjects, 5 mg/day, mean ± SD, read-out: Washout half-life (converted)",53 h
same,half-life,"both sexes, human, plasma, 5 mg/day, Obese subjects (BMI>=35), 5 mg/day, mean ± SD, read-out: Washout half-life (converted)",78.2 h
same,half-life,"both sexes, human, plasma, 5 mg/day, normal weight patients, read-out: elimination half-life (converted)",53 h
same,concentration at 504 h,"both sexes, human, plasma, 5 mg/day, normal patients (non-obese and/or normal CYP2D6 metabolizers), read-out: vortioxetine remaining in the blood plasma 21 days after stopping",0.54 ng/mL
same,AUC(0-t),"both sexes, human, plasma, oral, 5 mg/day, Normal-weight subjects, 5 mg/day, mean ± SD, read-out: AUC0-24 Day 1",24.8 ± 8.1 ng·h/mL
same,AUC(0-t),"both sexes, human, plasma, oral, 5 mg/day, Normal-weight subjects, 5 mg/day, mean ± SD, read-out: AUC0-24 Day 29",112 ± 48.7 ng·h/mL
same,half-life,"both sexes, human, plasma, oral, 5 mg/day, Obese subjects (BMI>=35), 5 mg/day, mean ± SD, read-out: Accumulation half-life (converted)",79.7 h
same,AUC(0-t),"both sexes, human, plasma, oral, 5 mg/day, Obese subjects, 5 mg/day, mean ± SD, read-out: AUC0-24 Day 1",22.6 ± 4.2 ng·h/mL
same,AUC(0-t),"both sexes, human, plasma, oral, 5 mg/day, Obese subjects, 5 mg/day, mean ± SD, read-out: AUC0-24 Day 29",119 ± 46.3 ng·h/mL
same,half-life,"both sexes, human, plasma, oral, 5 mg/day, normal subjects, read-out: plasma elimination half-life, range",30 to 80 h
same,half-life,"both sexes, human, plasma, oral, 5 mg/day, obese subjects, read-out: plasma elimination half-life, range",54 to 171 h
same,half-life,"human, plasma, 5 mg/day, one obese subject, CYP2D6 intermediate metabolizer (FIG. 8), read-out: accumulation half-life (converted)",173 h
same,half-life,"human, plasma, 5 mg/day, one obese subject, CYP2D6 intermediate metabolizer (FIG. 8), read-out: washout half-life (converted)",168 h
same,half-life,"human, plasma, im, 5 mg/day, individual subject, Normal cohort (BMI<25), IM, read-out: T1/2 (converted)",71.8 h
same,half-life,"human, plasma, im, 5 mg/day, individual subject, Obese cohort (BMI>=35), IM, read-out: T1/2 (converted)",171 h
same,Css,"individual subject, Normal cohort (BMI<25), IM, 5 mg/day",7.8 ng/mL
same,Css,"individual subject, Obese cohort (BMI>=35), IM, 5 mg/day",9.27 ng/mL
same,Css,"individual subjects, Normal cohort (BMI<25), EM, 5 mg/day",2.01 ng/mL and 3.31 ng/mL and 3.29 ng/mL and 3.51 ng/mL and 4.06 ng/mL and 3.21 ng/mL and 1.4 ng/mL and 1.54 ng/mL and 5.24 ng/mL and 5.42 ng/mL and 4.14 ng/mL and 3.13 ng/mL
same,Css,"individual subjects, Obese cohort (BMI>=35), EM, 5 mg/day",4.32 ng/mL and 4.58 ng/mL and 2.08 ng/mL and 4.57 ng/mL and 1.97 ng/mL and 3.44 ng/mL and 4.8 ng/mL and 4.75 ng/mL and 4.1 ng/mL and 3.22 ng/mL and 3.39 ng/mL and 3.38 ng/mL and 4.66 ng/mL and 4.85 ng/mL
same,washout period needed to attain about 0.14% of the initial plasma concentration,"obese individuals, Equation 2",31.5 days
same,time with measurable drug plasma concentrations after discontinuing vortioxetine,"obese subjects, 5 mg/day",at least 28 days
